Data reported in article PMC8129133, “Polymer-free corticosteroid dimer implants for controlled and sustained drug delivery” (Nature Communications, 2021).
“And” between values parts separate entries of the source, which are not always exact repeats. Equal entries are not always repeated.

Experiment: In vitro release
Format: physicochemical
Conditions: for Cumulative Dex (%): Fig 4b pellet 1x1 mm; for 23G x 6 mm - Cumulative Dex Release, % / 30G x 6 mm - Cumulative Dex Release, % / 23G x 6 mm - Cumulative Dex Release / 30G x 6 mm - Cumulative Dex Release: Fig 4e; for 23G x 6 mm - Cumulative Dex Release, % / 30G x 6 mm - Cumulative Dex Release, %: AVG; for 23G x 6 mm - Cumulative Dex Release / 30G x 6 mm - Cumulative Dex Release: single samples and AVG
Method: Pellets for release studies. Crystalline drug dimers were weighed on a stainless steel coupon. In the case of blends with a second drug, the dimer and drug were mixed at the desired mass ratio with mortar and pestle prior to weighing. Samples were transferred to a heat press (Carver Laboratory Press). A PTFE mold containing an array of 1 mm diameter holes of 1 mm depth was placed on top of the melt, and pressure was applied for 2 min. Molded pellets were cooled to room temperature and punched out of the mold, yielding a pellet of 1 mm height × 1 mm diameter.
Release studies were carried out using different media, including PBS (pH 7.4, Gibco), 100% FBS (Sigma, F1051), 1% FBS in PBS pH 7.4, and 3.6% BSA (Sigma, A7906) in PBS (pH 7.4, Gibco). […] Samples were incubated in release medium at 37 °C under constant agitation on an orbital shaker at 115 rpm (VWR). At designated timepoints, sampling was performed by complete removal of medium and replenishment with fresh buffer. Sampling timepoints included 24 h and then every 3–4 days thereafter. For PBS release conditions, samples were analyzed directly. For samples with protein (100% FBS, 1% FBS, 3.6% BSA), protein was precipitated by addition of acetonitrile. Samples were vortexed and centrifuged to separate extracted drug from precipitated protein. The supernatant was then analyzed for drug concentration by HPLC.

Compound: C[C@@H]1C[C@H]2[C@@H]3CCC4=CC(=O)C=C[C@]4(C)[C@@]3(F)[C@@H](O)C[C@]2(C)[C@@]1(O)C(=O)COC(=O)OCCOCCOCCOC(=O)OCC(=O)[C@@]1(O)[C@H](C)C[C@H]2[C@@H]3CCC4=CC(=O)C=C[C@]4(C)[C@@]3(F)[C@@H](O)C[C@@]21C [Dex-TEG-Dex]
- Cumulative Dex (%) (1% FBS, Day 1): 0.0326% and 0.0366% and 0.0447%
- Cumulative Dex (%) (1% FBS, Day 3): 0.11% and 0.12% and 0.13%
- Cumulative Dex (%) (1% FBS, Day 7): 0.35% and 0.44% and 0.38%
- Cumulative Dex (%) (1% FBS, Day 10): 0.52% and 0.59% and 0.51%
- Cumulative Dex (%) (1% FBS, Day 14): 0.81% and 0.96% and 0.85%
- Cumulative Dex (%) (1% FBS, Day 17): 0.94% and 1.07% and 1.04%
- Cumulative Dex (%) (1% FBS, Day 21): 1.22% and 1.44% and 1.42%
- Cumulative Dex (%) (1% FBS, Day 24): 1.37% and 1.56% and 1.61%
- Cumulative Dex (%) (1% FBS, Day 28): 1.58% and 1.84% and 1.93%
- Cumulative Dex (%) (1% FBS, Day 31): 1.78% and 2.05% and 2.12%
- Cumulative Dex (%) (1% FBS, Day 35): 1.95% and 2.46% and 2.48%
- Cumulative Dex (%) (100% FBS, Day 1): 1.59% and 1.88% and 1.25%
- Cumulative Dex (%) (100% FBS, Day 3): 6.12% and 9.16% and 4.64%
- Cumulative Dex (%) (100% FBS, Day 7): 11.07% and 13.41% and 9.59%
- Cumulative Dex (%) (100% FBS, Day 10): 15.60% and 21.36% and 19.29%
- Cumulative Dex (%) (100% FBS, Day 14): 21.12% and 26.30% and 23.66%
- Cumulative Dex (%) (100% FBS, Day 17): 25.65% and 33.52% and 29.96%
- Cumulative Dex (%) (100% FBS, Day 21): 29.80% and 39.06% and 33.88%
- Cumulative Dex (%) (100% FBS, Day 24): 34.99% and 43.22% and 37.26%
- Cumulative Dex (%) (100% FBS, Day 28): 41.40% and 49.76% and 42.62%
- Cumulative Dex (%) (100% FBS, Day 31): 49.48% and 56.79% and 48.41%
- Cumulative Dex (%) (100% FBS, Day 35): 52.66% and 62.41% and 52.08%
- Cumulative Dex (%) (PBS, Day 1): 0.0268% and 0.0111% and 0.0155%
- Cumulative Dex (%) (PBS, Day 7): 0.06% and 0.0341% and 0.04%
- Cumulative Dex (%) (PBS, Day 10): 0.075% and 0.04% and 0.05%
- Cumulative Dex (%) (PBS, Day 14): 0.09% and 0.05% and 0.06%
- Cumulative Dex (%) (PBS, Day 17): 0.10% and 0.0566% and 0.07%
- Cumulative Dex (%) (PBS, Day 21): 0.12% and 0.07% and 0.09%
- Cumulative Dex (%) (PBS, Day 24): 0.13% and 0.08% and 0.10%
- Cumulative Dex (%) (PBS, Day 28): 0.15% and 0.09% and 0.11%
- Cumulative Dex (%) (PBS, Day 31): 0.16% and 0.11% and 0.12%
- Cumulative Dex (%) (PBS, Day 35): 0.17% and 0.12% and 0.13%
- 23G x 6 mm - Cumulative Dex Release, % (Day 3): 1.00%
- 30G x 6 mm - Cumulative Dex Release, % (Day 3): 4.68%
- 23G x 6 mm - Cumulative Dex Release (Day 3): 3729.09 ng and 2929.83 ng and 3290.92 ng and 3423.46 ng and 3390.39 ng and 4152.03 ng
- 30G x 6 mm - Cumulative Dex Release (Day 3): 3437.65 ng and 3035.80 ng and 2955.67 ng and 2307.19 ng and 3016.47 ng
- 23G x 6 mm - Cumulative Dex Release (Day 3, mean): 3485.95 ng
- 30G x 6 mm - Cumulative Dex Release (Day 3, mean): 2950.56 ng
- 23G x 6 mm - Cumulative Dex Release, % (Day 8): 1.83%
- 30G x 6 mm - Cumulative Dex Release, % (Day 8): 10.16%
- 23G x 6 mm - Cumulative Dex Release (Day 8): 7366.47 ng and 5713.70 ng and 5752.02 ng and 6286.74 ng and 6353.56 ng and 6670.93 ng
- 30G x 6 mm - Cumulative Dex Release (Day 8): 7053.30 ng and 6157.33 ng and 6454.99 ng and 5803.26 ng and 6543.46 ng
- 23G x 6 mm - Cumulative Dex Release (Day 8, mean): 6357.24 ng
- 30G x 6 mm - Cumulative Dex Release (Day 8, mean): 6402.47 ng
- 23G x 6 mm - Cumulative Dex Release, % (Day 10): 2.30%
- 30G x 6 mm - Cumulative Dex Release, % (Day 10): 11.65%
- 23G x 6 mm - Cumulative Dex Release (Day 10): 9158.12 ng and 7456.22 ng and 6722.99 ng and 8377.04 ng and 7947.05 ng and 8287.22 ng
- 30G x 6 mm - Cumulative Dex Release (Day 10): 7909.95 ng and 7094.85 ng and 7391.21 ng and 6693.85 ng and 7620.80 ng
- 23G x 6 mm - Cumulative Dex Release (Day 10, mean): 7991.44 ng
- 30G x 6 mm - Cumulative Dex Release (Day 10, mean): 7342.13 ng
- 23G x 6 mm - Cumulative Dex Release, % (Day 14): 3.12%
- 30G x 6 mm - Cumulative Dex Release, % (Day 14): 14.82%
- 23G x 6 mm - Cumulative Dex Release (Day 14): 11851.57 ng and 10258.34 ng and 8632.68 ng and 12053.80 ng and 11294.23 ng and 11036.15 ng
- 30G x 6 mm - Cumulative Dex Release (Day 14): 9732.58 ng and 9343.08 ng and 9295.87 ng and 8576.11 ng and 9731.17 ng
- 23G x 6 mm - Cumulative Dex Release (Day 14, mean): 10854.46 ng
- 30G x 6 mm - Cumulative Dex Release (Day 14, mean): 9335.76 ng
- 23G x 6 mm - Cumulative Dex Release, % (Day 17): 3.78%
- 30G x 6 mm - Cumulative Dex Release, % (Day 17): 17.41%
- 23G x 6 mm - Cumulative Dex Release (Day 17): 14384.84 ng and 12536.91 ng and 10299.95 ng and 14655.10 ng and 13823.20 ng and 13226.26 ng
- 30G x 6 mm - Cumulative Dex Release (Day 17): 11350.14 ng and 11189.72 ng and 10651.54 ng and 10149.26 ng and 11503.70 ng
- 23G x 6 mm - Cumulative Dex Release (Day 17, mean): 13154.38 ng
- 30G x 6 mm - Cumulative Dex Release (Day 17, mean): 10968.87 ng
- 23G x 6 mm - Cumulative Dex Release, % (Day 21): 4.61%
- 30G x 6 mm - Cumulative Dex Release, % (Day 21): 21.03%
- 23G x 6 mm - Cumulative Dex Release (Day 21): 17889.27 ng and 15640.68 ng and 12427.10 ng and 17536.82 ng and 17079.10 ng and 15733.26 ng
- 30G x 6 mm - Cumulative Dex Release (Day 21): 13690.06 ng and 13583.23 ng and 12649.08 ng and 12021.08 ng and 14305.00 ng
- 23G x 6 mm - Cumulative Dex Release (Day 21, mean): 16051.04 ng
- 30G x 6 mm - Cumulative Dex Release (Day 21, mean): 13249.69 ng
- 23G x 6 mm - Cumulative Dex Release, % (Day 24): 5.14%
- 30G x 6 mm - Cumulative Dex Release, % (Day 24): 23.23%
- 23G x 6 mm - Cumulative Dex Release (Day 24): 20230.97 ng and 17190.29 ng and 13784.68 ng and 19329.36 ng and 19335.19 ng and 17491.78 ng
- 30G x 6 mm - Cumulative Dex Release (Day 24): 15132.41 ng and 14970.59 ng and 13925.27 ng and 13373.61 ng and 15759.23 ng
- 23G x 6 mm - Cumulative Dex Release (Day 24, mean): 17893.71 ng
